In the experiment the test system is wheat plants cultivar (cv.). Riband. Description: Biological evaluation of plant growth regulation effects on wheat. Type of experiment: in vivo. Conditions: 200 ppm; 2 weeks old wheat plants cv. Riband sprayed with formulated compound; assessed after 8 days at 22° C. and 80% r. h. in a greenhouse. The method, then: Biological Evaluation of Plant Growth Regulation Effects on Wheat
2 weeks old wheat plants cultivar (cv.). Riband were treated with the formulated test compound in a spray chamber. After an incubation period of 8 days at 22° C. and 80% relative humidity (r. h.) in a greenhouse, the plant growth regulating effects were assessed.

Take `OC(c1cccnc1)c1c(-c2ccccc2Cl)csc1-c1ccc(F)cc1F` (stereo not shown) [Compound 175, 2-(2,4-Difluorophenyl)-4-(2-chlorophenyl)-3-[(3-pyridyl)hydroxymethyl]-thiophene]: the “plant growth regulating effects” value was “plant height decrease”.
